From US5760000A (University Technologies International,Inc., priority 1994, dated 1998)
Entries after “also recorded” stand apart in the source; their conditions may differ. Like-named read-outs stand apart in the source and are kept apart here.

Legend:
[1] = biological target: GnRH receptor (HepG2 membrane preparation); assay: GnRH in vitro binding to HepG2 membrane preparation (radioreceptor assay); set-up: species or system human; details: Labeled ligand 125I-[D-Lys6]-GnRH; 95% confidence interval in parentheses; 4° C.
Description: (§1) Cells were grown to confluence as previously described and harvested from the flasks by using a rubber policeman. The cells were washed in normal assay buffer (([…] Tris[hydroxymethyl] aminomethane[Tris]-HCl), containing 1 mM dithiothreitol and 0.5% BSA [fraction-V] (pH 7.6)) and precipitated by centrifugation at 500g for 5 minutes at 4° C.
(§2) The cleaned cells were homogenized in 50 ml of freshly prepared ice cold 25 mM sucrose in assay buffer containing 1 mM Phenylmethanesulphonyl fluoride and 5 mM Ethylenediaminetetraacetic acid, using a glass TEFLON (polytetra-fluoroethylene) homogenizer, followed by centrifugation at 100 ×g for 5 minutes (4° C.). The supernatant was further centrifuged at 17,000×g for 30 minutes at 4° C., and the pellet (crude membrane preparation) washed briefly and resuspended in the assay buffer (approximately 40-50 μg membrane protein or approximately 1 x 10^6 cell equivalent per 100 μl).
(§3) For protein determination, aliquots of crude membrane preparations were washed twice with double distilled water by centrifugation (25,000 ×g) and assayed for protein content, using BSA as the standard. The binding assay was carried out at 4° C.
(§4) The displacement curves were fitted for both single and two classes of binding sites by computer calculated lines, as described.
(§5) The potency of various GnRH-related peptides in terms of binding (equilibrium dissociation constant; kd) and growth suppression activity in the human hepatocarcinoma derived cell line HepG2 was studied. […] Data analysis was performed as described.
(§6) Homologous displacement of GnRH-related peptides in membrane homogenates prepared from HepG2 cells and non-cancerous postmortem human liver tissue was studied. Values (mean ± SEM) represent specific binding [B/T, bound over total, in %] determined by subtraction of non-saturable binding in the presence of excess peptides (10^-5 M). Results were obtained from 5 to 7 separated experiments, each carried out in triplicate. The binding data were analyzed by computerized Scatchard analysis (LIGAND) according to Munson and Rodbard.

[2] = biological target: GnRH binding sites (normal human liver); assay: GnRH in vitro binding to non-cancerous postmortem human liver membrane preparation; details: Labeled ligand 125I-[D-Lys6]-GnRH; 95% confidence interval in parentheses; read-out: Receptor Binding Activity (Kd, nM) Normal Human Liver
Description: as §1, §2
(§7) A similar protocol was used to prepare the membrane from fresh rat and frozen human postmortem liver. In all experiments the final membrane preparation was used in the radioreceptor assay within 45 minutes.
as §3, §4, §6

[3] = biological target: GnRH binding sites (normal rat liver); assay: GnRH in vitro binding to normal rat liver membrane preparation; details: Labeled ligand 125I-[D-Lys6]-GnRH; 95% confidence interval in parentheses; read-out: Receptor Binding Activity (Kd, nM) Normal Rat Liver
Description: as §1, §2, §7, §3, §4

HepG2 cells [4] = assay: HepG2 cell proliferation (cell counting); assay type: cell-based
Description: (§8) HepG2 or HuH-7 cells were maintained in 75-cm^2 flasks at 37° C. under a humidified atmosphere of 5% CO2 in modified Minimum Essential Medium (Gibco-BRL) supplemented with 10% fetal bovine serum, 200mM 1-Glutamine (1%), Penicillin (1000 IU/ml), streptomycin (100 μg/ml) and sodium bicarbonate (0.15%). Cells grown to confluence were harvested following mild trypsinization and wash (twice by slow centrifugation; 400 g for 10 minutes) in normal culture medium.
(§9) Approximately 50,000 cells in 1.0 ml culture media were plated in 24 deep well plates (Flacon). This time was considered day -1. Cells were allowed to grow for one day. The growing cells were then treated with various hormones (at day 0) prepared aseptically in culture media immediately prior to addition. The final volume was maintained at 1 ml. The plates were then incubated at 37° C. for a period of 4 to 6 days, as described above.
(§10) Cells in each well were harvested by removal of culture media and incubation with 0.5 ml 0.25% trypsin and 1.75 mM EDTA for 30 minutes at 37° C. Cells were then transferred into 1.5 ml microfuge tubes and centrifuged at 100g for 10 minutes. The supernatant was removed and the pellet was resuspended in a final volume of 200 μl of culture media containing 10% trypan blue.
Cells were then counted using a hemocytometer. The average cell mortality was less than 5.0% and was not different among different treatment groups. Each value represents the mean and standard error of several experiments (n>3), each carried out in quadruplicate incubations at each time point and hormone concentration.
as §5
The effect of GnRH-related peptides on the proliferation of the human hepatoma derived cell line HepG2 was studied. Values (mean ± SEM) represent the percent change with respect to initial cell number at day 0 over a period of six days in culture.
The dose response curves were analyzed by a computerized, four parameter curve fitting program (ALLFIT) as described. The result of time-related response on cell proliferation was analyzed using a two-way ANOVA with multiple comparison means of using computerized statistical package (SYSTAT).

HepG2 cells [5] = assay: 3H-thymidine uptake in HepG2 cells; assay type: cell-based, human
Description: (§11) […] 3H-thymidine (Amersham TRK.120, 102 mCi/mg) was added to each well and was incubated at 37° C. for 4 hours. The media containing unabsorbed 3H-thymidine was aspired off and the cells were washed twice with ice cold phosphate buffered saline (PBS). The cells were then fixed with 5% trichloro acetic acid (TCA) for 20 minutes and washed twice with double distilled water. The fixed cells were solubilized with 0.2 ml NCS tissue solubilizer (Amersham) and counted for radioactivity using a liquid scintillation counter (50% efficiency).
The effect of GnRH-related peptides on ^3 H-thymidine incorporation was tested to assess changes in DNA synthesis of HepG2 cells (FIGS. 7A and 7B). Methods used were as previous described.

HuH-7 cells [6] = assay: HuH-7 cell proliferation; assay type: cell-based, human; details: single administration at 10^-7 M, six days in culture
Description: as §8, §9, §10
Cells were then counted using a hemocytometer. […]

HuH-7 cells [7] = assay: 3H-thymidine uptake in HuH-7 cells; assay type: cell-based, human; details: 10^-7 M, time-related
Description: as §11

- Kd [1]: 9.17 nM
- Kd [2]: 3300 nM
- Kd [3]: 769 nM
Structure (SMILES): CC(C)C[C@H](NC(=O)[C@@H](CCCCN)NC(=O)[C@H](Cc1ccc(O)cc1)NC(=O)[C@H](CO)NC(=O)[C@H](Cc1c[nH]c2ccccc12)NC(=O)[C@H](Cc1c[nH]cn1)NC(=O)[C@@H]1CCC(=O)N1)C(=O)N[C@@H](CCCNC(=N)N)C(=O)N1CCC[C@H]1C(=O)NCC(N)=O [[D-Lys^6]-GnRH, pGlu-His-Trp-Ser-Tyr-DLys-Leu-Arg-Pro-Gly-NH2]
- Suppression of HepG2 growth ED50 (HepG2 cells [4]): 2.00 nM
- HepG2 doubling time (HepG2 cells [4]; 10 nM, calculated over 4 days of growth): 65 ± 4.9 h
- HepG2 doubling time (HepG2 cells [4]; 100 nM, calculated over 4 days of growth): 77 ± 6.7 h
- HepG2 doubling time (HepG2 cells [4]; 1000 nM, growth phase, over 4 days of growth): 105 ± 10.0 h
- Effect on HepG2 cell proliferation, repeated administration (HepG2 cells [4]; 10^-7 M every two days, six days in culture): significantly suppressed
- Reversal of HepG2 growth suppression after removing the peptide or adding GnRH antagonist (HepG2 cells [4]; after three days of treatment): can not be reversed; also recorded: cannot be reversed
- Suppression of HepG2 growth ED50 (HepG2 cells [4]; calculated at day 4 of growth): 2.00 ± 0.9 nM
- Effect on HepG2 cell proliferation (HepG2 cells [4]; single administration at 10^-7 M, six days in culture): significantly suppressed
- 3H-thymidine incorporation in HepG2 cells (HepG2 cells [5]; 10^-7 M, over 4 days of incubation): blocked further ^3 H-thymidine incorporation above the day 1 level
- ED50, inhibition of DNA synthesis (3H-thymidine incorporation) in HepG2 cells (HepG2 cells [5]; after 72 hours in culture): 0.18 ± 0.03 nM
- ED50, inhibition of DNA synthesis (3H-thymidine incorporation) in HepG2 cells (HepG2 cells [5]; after 96 hours in culture): 0.14 ± 0.02 nM
- Effect on HuH-7 cell proliferation (HuH-7 cells [6]): significantly suppressed; also recorded: totally inhibited
- 3H-thymidine incorporation in HuH-7 cells (HuH-7 cells [7]): blocked further ^3 H-thymidine incorporation above day 1 level
